“And” between values parts separate entries of the source, which are not always exact repeats. Equal values may be shown once. Read-outs that look alike come from different tables or passages of the source.
Key:
SARS-CoV-2 [1] = type: cell-based; conditions: 0.032 μM and 0.064 μM compared to 40 μM and 8 μM values, p<0.05 and <0.001
VERO cells [2] = system: VERO cells
[3] = Blood plasma levels in pet dogs of the veterinary trial; type: in vivo, dog; conditions: plasma, oral, 179 mg/kg bw; dog 003-001 that achieved a partial response; read-out: monepantel blood plasma level
Description: In a Phase 2 veterinary clinical trial, monepantel was administered as tablets daily to six pet dog patients (dog identification numbers: 001-001, 001-002, 001-003, 003-001, 004-002 and 004-003) with treatment naïve B cell lymphoma at a target dose of 179 mg/kg bw. Superficial tumour lesions were measured with calipers, while lesions within the body were assessed by X-Ray, ultrasound, computer tomography (CT) and/or physical palpitation. Baseline Day 0 (D0) predose caliper, X-Ray, ultrasound and CT measurements where available as well as a complete physical examination were recorded.
An inverse correlation between RECIST1.1 response and blood plasma levels of monepantel and monepantel sulfone was evident. The one dog (003-001) that achieved a partial response, recorded monepantel and […] of 0.1 and 6.7 μM, respectively.

cancer = experiment: Phase 1b clinical trial, RECIST1.1 by computerised tomography; type: in vivo, human; conditions: monepantel as Zolvix daily 5 mg/kg bw
Description: (§1) In a Phase 1 b clinical trial, monepantel administered as Zolvix daily to four human patients (PA02, PA04, PA06 and PA07) at 5 mg/kg bw provided an anticancer effect by computerised tomography (CT) scanning according to RECIST1.1 criteria. […] Evidence of mTOR pathway signalling inhibition in these patients was supported by the finding of decreased eurkaryotic translation initiation factor 4E-binding protein 1 (EIF-4EBP1) phosphorylation levels from the preparations of PBMCs from PA02, PA04 and PA06 (FIG. 1B). EIF-4EIBP1 phosphorylation levels were not assayed from preparations of PBMCs from PA07.

SARS-CoV-2 [4] = type: cell-based; conditions: Calu-3 human cells, concentrations from 3.00 μM down to 0.013 μM
[5] = system: VERO cells infected with SARS-CoV-2; type: cell-based; conditions: approximately 5 μM MPL
SARS-CoV-2 [6] = type: cell-based; conditions: VERO cells
[7] = system: eurkaryotic translation initiation factor 4E-binding protein 1 (EIF-4EBP1); experiment: EIF-4EBP1 phosphorylation levels in patients' PBMCs (mTOR signalling); type: in vivo, human; conditions: 5 mg/kg bw daily
Description: as §1

VERO cells [8] = experiment: cells; conditions: Chlorocebus sabaeus, 120 h, read-out: 1050 (estimated from the 8 μM and 40 μM values)
[9] = system: treatment naïve B cell lymphoma; experiment: Phase 2 veterinary clinical trial, RECIST 1.1 tumour response; type: in vivo, dog
Description: Superficial tumour lesions were measured with calipers, while lesions within the body were assessed by X-Ray, ultrasound, computer tomography (CT) and/or physical palpitation. Baseline Day 0 (D0) predose caliper, X-Ray, ultrasound and CT measurements where available as well as a complete physical examination were recorded.

[10] = system: ribosomal protein S6 kinase beta-1 (RPS6KB1); experiment: RPS6KB1 phosphorylation levels in patients' PBMCs (mTOR signalling); type: in vivo, human; conditions: 5 mg/kg bw daily
[11] = Blood plasma levels in human patients; type: in vivo; conditions: monepantel as Zolvix 5 mg/kg bw daily
Description: as §1
Blood plasma monepantel and monepantel sulfone levels of all four patients were recorded at intervals throughout treatment (Table 2).

[12] = PA02, after three days of treatment
[13] = PA04, after three days of treatment
[14] = PA06, after three days of treatment
[15] = pet dogs, monepantel tablets daily, target dose 179 mg/kg bw, one value per dog, 179 mg/kg
[16] = six pet dogs, tablets daily, 179 mg/kg bw

C[C@](C#N)(COc1cc(C#N)ccc1C(F)(F)F)NC(=O)c1ccc(SC(F)(F)F)cc1 [MPL, N-[(1S)-1-Cyano-2-(5-cyano-2-trifluoromethyl-phenoxy)-1-methyl-ethyl]-4-trifluoromethylsulfanyl-benzamide]
SARS-CoV-2 RNA concentrations in the media (qPCR) (SARS-CoV-2 [1]): significantly decrease | effect upon SARS-CoV-2 infected VERO cells (LDH) (VERO cells [2]): no apparent effect | toxicity caused by SARS-CoV-2 (VERO cells [2]): appeared to increase toxicity | toxicity to Vero cells (LDH) (VERO cells [2]): significant toxicity | toxicity to uninfected VERO cells (VERO cells [2]): some toxicity | SARS-CoV-2 toxicity (VERO cells [2]; African green monkey): does not apparently increase SARS-CoV-2 toxicity | concentration at 14 day [3]: 100 nM | RECIST1.1 response by CT (cancer; patient PA07): progressive disease | RECIST1.1 response by CT (cancer; patients PA02, PA04 and PA06): stable disease | SARS-CoV-2 infectivity (TCID50) (SARS-CoV-2 [4]): reduced SARS-CoV-2 infectivity | protection against cell death following infection with SARS-CoV-2 [5]: protected VERO cell against cell death | SARS-CoV-2 infectivity (TCID50) compared to no treatment (SARS-CoV-2 [6]; MPL 0.064 μM): significantly reduces SARS-CoV-2 infectivity | SARS-CoV-2 infectivity (TCID50, repeat experiment) compared to no treatment (SARS-CoV-2 [6]; MPL 0.137 μM (greatest effect)): significantly reduces SARS-CoV-2 infectivity | SARS-CoV-2 infectivity (TCID50, repeat experiment) (SARS-CoV-2 [6]; MPL 0.411 μM and 0.046 μM): significantly reduced SARS-CoV-2 infectivity | SARS-CoV-2 infectivity (TCID50) (SARS-CoV-2 [6]; MPL 0.32, 1.6 and 8.0 μM): did not significantly reduce | reduction of PBMC EIF-4EBP1 phosphorylation levels relative to pre-treatment ([7]; PA02, after seven days of treatment): 85.6% | reduction of PBMC EIF-4EBP1 phosphorylation levels relative to pre-treatment [7, 12]: 38.5% | reduction of PBMC EIF-4EBP1 phosphorylation levels relative to pre-treatment [7, 13]: 96.6% | reduction of PBMC EIF-4EBP1 phosphorylation levels relative to pre-treatment [7, 14]: 34.4% | IC50 (VERO cells [8]): ~30 µM | RECIST 1.1 tumour response D14 Target Lesions [9, 15]: PR (PR = partial response) | RECIST 1.1 tumour response Overall [9, 15]: PR (PR = partial response) | target superficial lymph node caliper measurements at D28 ([9]; pet dogs, tablets daily, 179 mg/kg bw): four of four dogs achieving stable target superficial lymph node caliper measurements | RECIST 1.1 responses of the six dogs at D14 [9, 16]: One dog achieved a partial response, four dogs achieved stable disease and one dog had progressive disease | anti-cancer effect at D14 [9, 16]: strong anti-cancer effect | reduction of PBMC RPS6KB1 phosphorylation levels relative to pre-treatment ([10]; PA02, PA06 and PA07, after seven days of treatment): 85.6% | reduction of PBMC RPS6KB1 phosphorylation levels relative to pre-treatment [10, 12]: 27.3% | reduction of PBMC RPS6KB1 phosphorylation levels relative to pre-treatment [10, 13]: 28.6% | reduction of PBMC RPS6KB1 phosphorylation levels relative to pre-treatment [10, 14]: 81.2% | mTOR signalling (decreased RPS6KB1 phosphorylation in PBMCs) ([10]; four patients): inhibited in all four patients | Blood plasma level of monepantel, Average ([11]; 0.25 h, average of patients): 0.010 ∞M | Blood plasma level of monepantel ([11]; 0.25 h, individual patients): 6.46 ng/ml and 0 ng/ml (2×) and 12.2 ng/ml | Blood plasma level of monepantel, Average ([11]; 0.5 h, average of patients): 0.051 ∞M | Blood plasma level of monepantel ([11]; 0.5 h, individual patients): 39.4 ng/mL and 16.1 ng/mL and 10.5 ng/mL and 31 ng/mL | Blood plasma level of monepantel, Average ([11]; 1 h, average of patients): 0.137 ∞M | Blood plasma level of monepantel ([11]; 1 h, individual patients): 110 ng/mL and 46.2 ng/mL and 42.1 ng/mL and 61 ng/mL | Blood plasma level of monepantel, Average ([11]; 2 h, average of patients): 0.298 ∞M | Blood plasma level of monepantel ([11]; 2 h, individual patients): 99.1 ng/mL and 171 ng/mL and 112 ng/mL | Blood plasma level of monepantel, Average ([11]; 4 h, average of patients): 0.353 ∞M | Blood plasma level of monepantel ([11]; 4 h, individual patients): 104 ng/mL and 234 ng/mL and 144 ng/mL and 187 ng/mL | Blood plasma level of monepantel, Average ([11]; 8 h, average of patients): 0.145 ∞M | Blood plasma level of monepantel ([11]; 8 h, individual patients): 62.1 ng/mL and 63.6 ng/mL and 108 ng/mL and 40.2 ng/mL | Blood plasma level of monepantel, Average ([11]; 12 h, average of patients): 0.064 ∞M | Blood plasma level of monepantel ([11]; 12 h, individual patients): 26.9 ng/mL and 24.1 ng/mL and 52.5 ng/mL and 18.6 ng/mL | Blood plasma level of monepantel, Average ([11]; 24 h, average of patients): 0.030 ∞M | Blood plasma level of monepantel ([11]; 24 h, individual patients): 13.7 ng/mL and 11.6 ng/mL and 21.8 ng/mL and 9.95 ng/mL | Blood plasma level of monepantel, Average ([11]; pre-dose D3, average of patients): 10.7 ng/ml and 0.023 ∞M | Blood plasma level of monepantel ([11]; pre-dose D3, individual patients): 16.4 ng/mL and 8.07 ng/mL and 9.99 ng/mL and 8.33 ng/mL | Blood plasma level of monepantel, Average ([11]; pre-dose D4, average of patients): 9.2 ng/ml and 0.019 ∞M | Blood plasma level of monepantel ([11]; pre-dose D4, individual patients): 14.7 ng/mL and 6.98 ng/mL and 8.65 ng/mL and 6.44 ng/mL | Blood plasma level of monepantel, Average ([11]; pre-dose D5, average of patients): 6.9 ng/ml and 0.015 ∞M | Blood plasma level of monepantel ([11]; pre-dose D5, individual patients): 9.94 ng/mL and 6.86 ng/mL and 5.72 ng/mL and 5.03 ng/mL | Blood plasma level of monepantel, Average ([11]; pre-dose D6, average of patients): 6.3 ng/ml and 0.013 ∞M | Blood plasma level of monepantel ([11]; pre-dose D6, individual patients): 9.99 ng/mL and 7.22 ng/mL and 4.62 ng/mL and 3.34 ng/mL | Blood plasma level of monepantel, Average ([11]; pre-dose D7, average of patients): 5.4 ng/ml and 0.011 ∞M | Blood plasma level of monepantel ([11]; pre-dose D7, individual patients): 7.42 ng/mL and 6.39 ng/mL and 4.58 ng/mL and 3.32 ng/mL | Blood plasma level of monepantel, Average ([11]; pre-dose D14, average of patients): 4.4 ng/ml and 0.009 ∞M | Blood plasma level of monepantel ([11]; pre-dose D14, individual patients): 4.85 ng/mL and 5.25 ng/mL and 3.23 ng/mL | Blood plasma level of monepantel, Average ([11]; pre-dose D21, average of patients): 3.8 ng/ml and 0.008 ∞M | Blood plasma level of monepantel ([11]; pre-dose D21, individual patients): 4.34 ng/mL and 3.16 ng/mL | Blood plasma level of monepantel, Average ([11]; pre-dose D28, average of patients): 3.8 ng/ml and 0.008 ∞M | Blood plasma level of monepantel ([11]; pre-dose D28, individual patients): 4.65 ng/mL and 2.96 ng/mL | concentration at 0.25 h ([11]; plasma, oral, 5 mg/kg bw, 0.25 h, average of patients, read-out: Blood plasma level of monepantel, Average): 4.7 ng/mL | concentration at 0.5 h ([11]; plasma, oral, 5 mg/kg bw, 0.5 h, average of patients, read-out: Blood plasma level of monepantel, Average): 24.3 ng/mL | concentration at 1 h ([11]; plasma, oral, 5 mg/kg bw, 1 h, average of patients, read-out: Blood plasma level of monepantel, Average): 64.8 ng/mL | concentration at 2 h ([11]; plasma, oral, 5 mg/kg bw, 2 h, average of patients, read-out: Blood plasma level of monepantel, Average): 141 ng/mL | concentration at 2 h ([11]; plasma, oral, 5 mg/kg bw, 2 h, individual patients, read-out: Blood plasma level of monepantel): 183 ng/mL | concentration at 4 h ([11]; plasma, oral, 5 mg/kg bw, 4 h, average of patients, read-out: Blood plasma level of monepantel, Average): 167 ng/mL | concentration at 8 h ([11]; plasma, oral, 5 mg/kg bw, 8 h, average of patients, read-out: Blood plasma level of monepantel, Average): 68.5 ng/mL | concentration at 12 h ([11]; plasma, oral, 5 mg/kg bw, 12 h, average of patients, read-out: Blood plasma level of monepantel, Average): 30.5 ng/mL | concentration at 24 h ([11]; plasma, oral, 5 mg/kg bw, 24 h, average of patients, read-out: Blood plasma level of monepantel, Average): 14.3 ng/mL
